Reference: ChEMBL document CHEMBL2016440, “Overcoming fluconazole resistance in Candida albicans clinical isolates with tetracyclic indoles” (Bioorg Med Chem Lett, 2012)
Active and inactive are the calls of the source. The calls are words filed in the database; no cut-off is given here.

What was measured:
Candida albicans [1] = test: Antifungal activity against fluconazole-resistant Candida albicans isolate 2 assessed as growth inhibition after 48 hrs by alamar blue fluorescence assay in presence of 8 ug/ml fluconazole; format: functional, organism-based; settings: isolate 2, 48 h
Candida albicans [2] = test: Antifungal activity against fluconazole-resistant Candida albicans isolate 8 assessed as growth inhibition after 48 hrs by alamar blue fluorescence assay in presence of 8 ug/ml fluconazole; format: functional, organism-based; settings: isolate 8, 48 h
Candida albicans [3] = test: Antifungal activity against fluconazole-sensitive Candida albicans SC5314 assessed as growth inhibition at 7.5 ug/ml after 24 hrs by alamar blue fluorescence assay; format: functional, organism-based
Candida albicans [4] = test: Antifungal activity against fluconazole-sensitive Candida albicans SC5314 assessed as growth inhibition at 7.5 ug/ml after 24 hrs by alamar blue fluorescence assay in presence of fluconazole; format: functional; settings: SC5314, 24 h, read-out: GI
NIH3T3 [5] = test: Cytotoxicity against mouse 3T3 cells; format: cell-based
Candida albicans [6] = test: Antifungal activity against Candida albicans assessed as growth inhibition after 48 hrs by alamar blue fluorescence assay; format: functional, organism-based
NIH3T3 [7] = test: Cytotoxicity against mouse 3T3 cells at 0.2 to 26 uM; format: cell-based; settings: nih3t3, 26 µM
Candida albicans [8] = test: Antifungal activity against fluconazole-sensitive Candida albicans SC5314 assessed as growth inhibition at 8 ug/ml after 24 hrs by alamar blue fluorescence assay; format: functional, organism-based
Candida albicans [9] = test: Antifungal activity against fluconazole-sensitive Candida albicans SC5314 assessed as growth inhibition at 1 ug/ml after 24 hrs by alamar blue fluorescence assay; format: functional, organism-based

`O=C(O)Cn1c2ccc(F)cc2c2nc3n(c(=O)c21)CCS3` was tested, and the IC50 (Candida albicans [1]) was over 26 µM and the IC50 (Candida albicans [2]) was over 26 µM.

`CCN(CC)C(=O)Cn1c2ccc(F)cc2c2nc3n(c(=O)c21)CCS3` was tested, and the IC50 (Candida albicans [1]) was 0.5 µM and the IC50 (Candida albicans [2]) was over 26 µM.

For `O=C(Cn1c2ccc(F)cc2c2nc3n(c(=O)c21)CCS3)N1CCCC1`, the IC50 (Candida albicans [1]) was 0.6 µM and the IC50 (Candida albicans [2]) was 18.9 µM.

For `O=C(Cn1c2ccc(F)cc2c2nc3n(c(=O)c21)CCS3)N1CC=CC1`, the IC50 (Candida albicans [1]) was 0.5 µM and the IC50 (Candida albicans [2]) was over 26 µM.

With `O=C(Cn1c2ccccc2c2nc3n(c(=O)c21)CCS3)N1CCCC1` the IC50 (Candida albicans [1]) was 1.1 µM, the “growth inhibition (GI)” value (Candida albicans [3]) was “inactive” and the inhibition of growth at 7.5 µg/mL (Candida albicans [4]) was 96%. It also gave an IC50 (Candida albicans [2]) of 1.9 µM, an IC50 (NIH3T3 [5]) of over 26 µM and an IC50 (Candida albicans [6]) of over 26 µM.

`COC(=O)Cn1c2ccccc2c2nc3n(c(=O)c21)CCS3` was tested, and the IC50 (Candida albicans [1]) was 7.9 µM and the IC50 (Candida albicans [2]) was 13.3 µM.

`CC1CCN(CCn2c3ccccc3c3nc4n(c(=O)c32)CCS4)CC1` was tested, and the IC50 (Candida albicans [1]) was over 10 µM and the IC50 (Candida albicans [2]) was over 26 µM.

`CC1CCN(C(=O)Cn2c3ccc(F)cc3c3nc4n(c(=O)c32)CCCS4)CC1` was tested, and the IC50 (Candida albicans [1]) was 2.7 µM and the IC50 (Candida albicans [2]) was 11.7 µM.

Work on `CN1CCN(C(=O)Cn2c3ccccc3c3nc4n(c(=O)c32)CCS4)CC1` yielded an IC50 (Candida albicans [1]) of 7.1 µM and an IC50 (Candida albicans [2]) of 22.5 µM.

`O=C(Cn1c2ccccc2c2nc3n(c(=O)c21)CCS3)NCCc1ccc(Cl)cc1` was tested, and the IC50 (Candida albicans [1]) was over 10 µM and the IC50 (Candida albicans [2]) was 23.4 µM.

`O=C(Cn1c2ccccc2c2nc3n(c(=O)c21)CCS3)N1CCCCC1` was tested, and the IC50 (Candida albicans [1]) was 1.9 µM and the IC50 (Candida albicans [2]) was 2.9 µM.

`O=C(Cn1c2ccccc2c2ccncc21)N1CCCCC1` was tested, and the IC50 (Candida albicans [1]) was over 26 µM and the IC50 (Candida albicans [2]) was over 26 µM.

`CC1CCN(C(=O)Cn2c3ccccc3c3nc4n(c(=O)c32)CCCS4)CC1` showed an IC50 (Candida albicans [1]) of 12.1 µM and an IC50 (Candida albicans [2]) of 21.3 µM.

`O=C(Cn1c2ccccc2c2nc3n(c(=O)c21)CCS3)N1CCC(F)(F)C1` was tested, and the IC50 (Candida albicans [1]) was 5.9 µM and the IC50 (Candida albicans [2]) was 10.2 µM.

`CC1CCN(C(=O)Cn2c3ccccc3c3nc4n(c(=O)c32)CCS4)CC1` was tested, and the IC50 (Candida albicans [1]) was 3.2 µM, the Activity (NIH3T3 [7]) was “Non-toxic” and the IC50 (Candida albicans [2]) was 5.5 µM. The IC50 (NIH3T3 [5]) was over 26 µM.

`O=C(Cn1c2ccc(F)cc2c2nc3n(c(=O)c21)CCS3)N1CCCCCC1` showed an IC50 (Candida albicans [1]) of 2.2 µM and an IC50 (Candida albicans [2]) of over 26 µM.

In the case of `COc1ccc2c(c1)c1nc3n(c(=O)c1n2CC(=O)N1CCC(Cc2ccccc2)CC1)CCS3`, the IC50 (Candida albicans [1]) is reported as over 26 µM and the IC50 (Candida albicans [2]) is reported as over 26 µM.

In the case of `O=C(O)Cn1c2ccccc2c2nc3n(c(=O)c21)CCS3`, the IC50 (Candida albicans [1]) is reported as over 10 µM and the IC50 (Candida albicans [2]) is reported as over 26 µM.

In the case of `OC(Cn1cncn1)(Cn1cncn1)c1ccc(F)cc1F`, the “growth inhibition (GI)” value (Candida albicans [8]) is reported as “inactive”.

Work on `COC(=O)Cn1c2ccc(F)cc2c2nc3n(c(=O)c21)CCS3` yielded an IC50 (Candida albicans [1]) of 3.5 µM and an IC50 (Candida albicans [2]) of 6 µM.

`O=C(Cn1c2ccc(F)cc2c2nc3n(c(=O)c21)CCS3)N1CCCCC1` gave an IC50 (Candida albicans [1]) of 0.5 µM and an IC50 (Candida albicans [2]) of over 26 µM.

Work on `COc1ccc(NC(=O)Cn2c3ccccc3c3nc4n(c(=O)c32)CCS4)cc1` yielded an IC50 (Candida albicans [1]) of over 10 µM and an IC50 (Candida albicans [2]) of over 26 µM.

For `C[C@@H]1[C@H](O)[C@@H](C)/C=C/C=C/C=C/C=C/C=C/C=C/C=C/[C@H](O[C@@H]2O[C@H](C)[C@@H](O)[C@H](N)[C@@H]2O)C[C@@H]2O[C@](O)(C[C@@H](O)C[C@@H](O)[C@H](O)CC[C@@H](O)C[C@@H](O)CC(=O)O[C@H]1C)C[C@H](O)[C@H]2C(=O)O`, the “growth inhibition (GI)” value (Candida albicans [9]) was “Active”.

In the case of `O=C(Cn1c2ccccc2c2nc3n(c(=O)c21)CCS3)N1CC=CC1`, the IC50 (Candida albicans [1]) is reported as 1.8 µM and the IC50 (Candida albicans [2]) is reported as 3.1 µM.

With `COc1ccc2c(c1)c1nc3n(c(=O)c1n2CC(=O)N1CCC(C)CC1)CCS3` the IC50 (Candida albicans [1]) was over 26 µM and the IC50 (Candida albicans [2]) was over 26 µM.

For `CCN(CC)C(=O)Cn1c2ccccc2c2nc3n(c(=O)c21)CCS3`, the IC50 (Candida albicans [1]) was 2.3 µM and the IC50 (Candida albicans [2]) was over 26 µM.

Work on `Oc1c2nc3ccccc3c-2nc2n1CCS2` yielded an IC50 (Candida albicans [1]) of over 10 µM and an IC50 (Candida albicans [2]) of 15.7 µM.

`CC1(O)CN(C(=O)Cn2c3ccccc3c3nc4n(c(=O)c32)CCS4)C1` gave an IC50 (Candida albicans [1]) of over 10 µM and an IC50 (Candida albicans [2]) of over 26 µM.

Work on `Oc1c2nc3ccc(F)cc3c-2nc2n1CCS2` yielded an IC50 (Candida albicans [1]) of 3.8 µM and an IC50 (Candida albicans [2]) of 7.1 µM.

With `O=C(Cn1c2ccc(F)cc2c2nc3n(c(=O)c21)CCS3)N1CCC(F)(F)CC1` the IC50 (Candida albicans [1]) was 0.7 µM and the IC50 (Candida albicans [2]) was over 26 µM.

`O=C(Cn1c2ccc(F)cc2c2nc3n(c(=O)c21)CCS3)N1CCC(F)(F)C1` was tested, and the IC50 (Candida albicans [1]) was 1.1 µM and the IC50 (Candida albicans [2]) was 1.1 µM.

For `O=C(Cn1c2ccccc2c2nc3n(c(=O)c21)CCS3)N1CCC(F)(F)CC1`, the IC50 (Candida albicans [1]) was over 10 µM and the IC50 (Candida albicans [2]) was over 26 µM.

For `O=C(Cn1c2ccccc2c2nc3n(c(=O)c21)CCS3)N1CCOCC1`, the IC50 (Candida albicans [1]) was 4.3 µM and the IC50 (Candida albicans [2]) was 6.6 µM.
